Reference: ChEMBL document CHEMBL4837181 (Eur J Med Chem, 2020)
Values belong to the compound of their own block, whether it stands above or below them.

What was measured:
[1] = Chemical stability of compound in simulated gastric fluid assessed as compound remaining at 5 uM measured after 24 hrs by LC-MS/MS analysis; assay type: ADME, physicochemical; settings: read-out: Stabilty
[2] = AUC (0 to 12 hrs) in female rat at 180 mg/kg, po BID measured on day 28; assay type: ADME, organism-based; set-up: time < 12 hr, route oral, dose 180 mg/kg; settings: in vivo
[3] = molecular target: T1, Broad substrate specificity ATP-binding cassette transporter ABCG2 (Homo sapiens, UniProt Q9UNQ0); test: Inhibition of BCRP in human Caco-2 cells; assay type: cell-based
T1 sequence (Q9UNQ0 whole entry): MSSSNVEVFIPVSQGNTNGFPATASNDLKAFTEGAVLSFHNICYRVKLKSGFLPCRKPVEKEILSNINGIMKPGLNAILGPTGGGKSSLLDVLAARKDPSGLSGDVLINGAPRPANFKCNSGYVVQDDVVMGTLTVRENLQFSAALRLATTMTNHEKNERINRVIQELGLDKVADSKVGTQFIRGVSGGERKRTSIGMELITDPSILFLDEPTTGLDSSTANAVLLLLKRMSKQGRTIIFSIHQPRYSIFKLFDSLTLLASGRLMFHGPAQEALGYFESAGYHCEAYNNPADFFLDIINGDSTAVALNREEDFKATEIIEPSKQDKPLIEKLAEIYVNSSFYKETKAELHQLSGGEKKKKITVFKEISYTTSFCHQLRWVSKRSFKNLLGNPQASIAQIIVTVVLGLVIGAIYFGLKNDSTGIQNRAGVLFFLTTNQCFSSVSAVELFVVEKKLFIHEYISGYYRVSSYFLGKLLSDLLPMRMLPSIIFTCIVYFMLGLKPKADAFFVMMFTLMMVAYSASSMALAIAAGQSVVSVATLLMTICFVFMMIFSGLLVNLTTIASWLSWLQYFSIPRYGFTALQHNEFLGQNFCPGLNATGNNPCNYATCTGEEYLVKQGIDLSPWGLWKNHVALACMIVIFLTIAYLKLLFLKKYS

[4] = Toxicity in rat assessed as labored breathing at 150 to 180 mg/kg, po; assay type: organism-based; settings: in vivo, dose 150-180 mg/kg
[5] = Drug metabolism in cynomolgus monkey assessed as formation of M9 metabolite at 75 to 375 mg/kg, po BID; assay type: ADME, organism-based, Macaca fascicularis; settings: in vivo, dose 75-375 mg/kg
[6] = Toxicity in po dosed male rat administered twice a day; assay type: organism-based; settings: in vivo
[7] = Drug metabolism in cynomolgus monkey assessed as indoximod formation by measuring indoximod Tmax at 75 to 375 mg/kg, po BID; assay type: ADME, organism-based, Macaca fascicularis; settings: in vivo, dose 75-375 mg/kg
[8] = Drug metabolism in Beagle dog hepatocytes assessed as unmetabolized compound at 10 uM incubated for 120 mins by UPLC-QTOF-PDA analysis; assay type: ADME, cell-based, Canis lupus familiaris, Hepatocyte; settings: read-out: Drug metabolism
[9] = Oral bioavailability in female cynomolgus monkey at 75 mg/kg; assay type: ADME, organism-based, Macaca fascicularis; settings: in vivo
[10] = Stability in human plasma assessed as parent compound remaining measured after 24 hrs by LC-MS/MS analysis; assay type: ADME, cell-free; settings: read-out: Stabilty
[11] = Half life in male cynomolgus monkey at 75 mg/kg, po BID measured on day 8; assay type: ADME, organism-based, Macaca fascicularis; settings: in vivo
[12] = Drug metabolism in cynomolgus monkey assessed as ratio of indoximod to parent compound at 75 to 675 mg/kg, po administered as single dose; assay type: ADME, organism-based, Macaca fascicularis; settings: in vivo, dose 75-675 mg/kg
[13] = Protein binding in Beagle dog plasma; assay type: ADME, cell-free, Canis lupus familiaris; settings: read-out: PPB
[14] = AUC (0 to 24 hrs) in female cynomolgus monkey at 75 mg/kg, po BID measured on day 8; assay type: ADME, organism-based, Macaca fascicularis; set-up: time < 24 hr, route oral, dose 75 mg/kg; settings: in vivo
[15] = Oral bioavailability in male cynomolgus monkey at 75 mg/kg; assay type: ADME, organism-based, Macaca fascicularis; settings: in vivo
[16] = Solubility in water; assay type: physicochemical
[17] = molecular target: T2, Solute carrier organic anion transporter family member 1B1 (Homo sapiens, UniProt Q9Y6L6); test: Inhibition of OATP1B1 (unknown origin) expressed in HEK293 cells; assay type: cell-based
T2 sequence (Q9Y6L6 whole entry): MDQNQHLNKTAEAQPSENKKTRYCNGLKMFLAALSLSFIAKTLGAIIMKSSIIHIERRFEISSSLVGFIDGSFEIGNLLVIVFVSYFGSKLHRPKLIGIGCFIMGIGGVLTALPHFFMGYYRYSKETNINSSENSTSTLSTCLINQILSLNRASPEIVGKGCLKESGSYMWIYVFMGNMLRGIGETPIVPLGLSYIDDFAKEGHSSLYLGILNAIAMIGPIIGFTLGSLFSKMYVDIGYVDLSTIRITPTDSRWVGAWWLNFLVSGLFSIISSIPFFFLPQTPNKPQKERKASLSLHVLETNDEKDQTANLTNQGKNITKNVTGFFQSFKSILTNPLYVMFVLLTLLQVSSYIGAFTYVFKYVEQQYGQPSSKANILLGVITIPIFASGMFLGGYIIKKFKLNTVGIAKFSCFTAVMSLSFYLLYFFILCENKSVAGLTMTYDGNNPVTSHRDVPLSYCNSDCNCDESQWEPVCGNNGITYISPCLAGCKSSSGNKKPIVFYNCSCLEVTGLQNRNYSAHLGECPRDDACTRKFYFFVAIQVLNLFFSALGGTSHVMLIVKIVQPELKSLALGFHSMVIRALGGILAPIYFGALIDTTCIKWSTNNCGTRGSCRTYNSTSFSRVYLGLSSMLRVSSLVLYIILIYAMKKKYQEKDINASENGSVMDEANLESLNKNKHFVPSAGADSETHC

[18] = Chemical stability of compound in simulated intestinal fluid assessed as compound remaining at 5 uM measured after 24 hrs by LC-MS/MS analysis; assay type: ADME, physicochemical; settings: read-out: Stabilty
[19] = Half life in male cynomolgus monkey at 15 mg/kg, iv measured on day 1; assay type: ADME, organism-based, Macaca fascicularis; settings: in vivo
[20] = Change in normalised Cmax in rat at 50 mg/kg, po measured upto 72 hrs by LC-MS/MS analysis; assay type: ADME, organism-based; settings: in vivo
[21] = Tmax in female cynomolgus monkey at 225 mg/kg, po measured on day 1; assay type: ADME, organism-based, Macaca fascicularis; settings: in vivo
[22] = Solubility of compound at pH 1; assay type: physicochemical; settings: buffer
[23] = Apparent oral clearance in male cynomolgus monkey at 150 mg/kg, po BID measured on day 8; assay type: ADME, organism-based, Macaca fascicularis; settings: in vivo
[24] = Cmax in female cynomolgus monkey at 225 mg/kg, po measured on day 1; assay type: ADME, organism-based, Macaca fascicularis; set-up: route oral, dose 225 mg/kg; settings: in vivo
[25] = Average plasma concentration at steady state in mouse at 62 mg/kg administered bid; assay type: ADME, organism-based; settings: in vivo
[26] = Half life in rat at 20 to 900 mg/kg, po; assay type: ADME, organism-based; settings: in vivo, dose 20-900 mg/kg
[27] = Cmax in human up to 1200 mg administered bid; assay type: ADME; set-up: dose <=1200
[28] = Half life in female cynomolgus monkey at 375 mg/kg, po BID measured on day 8; assay type: ADME, organism-based, Macaca fascicularis; settings: in vivo
[29] = Average plasma concentration at steady state in mouse at 250 mg/kg administered bid; assay type: ADME, organism-based; settings: in vivo
[30] = Tmax in male cynomolgus monkey at 75 mg/kg, po measured on day 1; assay type: ADME, organism-based, Macaca fascicularis; settings: in vivo
[31] = Clearance in female cynomolgus monkey at 15 mg/kg, iv measured on day 1; assay type: ADME, organism-based, Macaca fascicularis; settings: in vivo, time 1 day
[32] = Cmax in male cynomolgus monkey at 75 mg/kg, po measured on day 1; assay type: ADME, organism-based, Macaca fascicularis; set-up: route oral, dose 75 mg/kg; settings: in vivo
[33] = Apparent oral clearance in female cynomolgus monkey at 150 mg/kg, po BID measured on day 8; assay type: ADME, organism-based, Macaca fascicularis; settings: in vivo

SMILES: CCOC(=O)[C@@H](Cc1cn(C)c2ccccc12)NC(=O)[C@@H](N)CC(C)C.Cl
remaining at 24 h, 5 µM [1]: 88%
AUC at 12 h [2]: 1380 µM·h
inhibition (INH) [3]: Not Active
Activity [4]: Toxic
Drug metabolism [5]: Metabolite_Detected
TD10 [6]: 150 mg/kg
Tmax [7]: 1 h
remaining at 2 h, 10 µM [8]: 1.1%
bioavailability [9]: 50.1%
remaining at 24 h [10]: 6%
half-life [11]: 1.8 h
Ratio [12]: 690
fraction unbound [13]: 0.5
AUC at 24 h [14]: 0.0356 µM·h
bioavailability [15]: 61.8%
solubility [16]: 19.8 mg/mL
IC50 [17]: > 50 µM
remaining at 24 h, 5 µM [18]: 30%

half-life [19]: 2 h
Activity [20]: 0%
Tmax [21]: 1 h
solubility [22]: > 20 mg/mL
CL/F [23]: 13.8 mL/min/kg
Cmax [24]: 68.5 µM
Cave [25]: > 7 µM
half-life [26]: 23 h
Cmax [27]: 13.7 µM
half-life [28]: 3.8 h
Cave [29]: 29 µM
Tmax [30]: 2 h
clearance [31]: 10.2 mL/min/kg
Cmax [32]: 74.4 µM
CL/F [33]: 17.6 mL/min/kg
SMILES: Cn1cc(C[C@@H](N)C(=O)O)c2ccccc21 [INDOXIMOD]
